{
  "source": "patent US20240150345A1",
  "about": "“GCN2 MODULATING COMPOUNDS AND USES THEREOF” (HiberCell, Inc., priority 2021, published 2024)",
  "note": "pIC50: −log10 of the molar value.",
  "data": [
    {"target": "T1, GCN2 (Homo sapiens, UniProt Q9P2K8)", "T1 construct": "purchased Carma Biosciences (so in the source)", "T1 sequence (Q9P2K8 whole entry)": "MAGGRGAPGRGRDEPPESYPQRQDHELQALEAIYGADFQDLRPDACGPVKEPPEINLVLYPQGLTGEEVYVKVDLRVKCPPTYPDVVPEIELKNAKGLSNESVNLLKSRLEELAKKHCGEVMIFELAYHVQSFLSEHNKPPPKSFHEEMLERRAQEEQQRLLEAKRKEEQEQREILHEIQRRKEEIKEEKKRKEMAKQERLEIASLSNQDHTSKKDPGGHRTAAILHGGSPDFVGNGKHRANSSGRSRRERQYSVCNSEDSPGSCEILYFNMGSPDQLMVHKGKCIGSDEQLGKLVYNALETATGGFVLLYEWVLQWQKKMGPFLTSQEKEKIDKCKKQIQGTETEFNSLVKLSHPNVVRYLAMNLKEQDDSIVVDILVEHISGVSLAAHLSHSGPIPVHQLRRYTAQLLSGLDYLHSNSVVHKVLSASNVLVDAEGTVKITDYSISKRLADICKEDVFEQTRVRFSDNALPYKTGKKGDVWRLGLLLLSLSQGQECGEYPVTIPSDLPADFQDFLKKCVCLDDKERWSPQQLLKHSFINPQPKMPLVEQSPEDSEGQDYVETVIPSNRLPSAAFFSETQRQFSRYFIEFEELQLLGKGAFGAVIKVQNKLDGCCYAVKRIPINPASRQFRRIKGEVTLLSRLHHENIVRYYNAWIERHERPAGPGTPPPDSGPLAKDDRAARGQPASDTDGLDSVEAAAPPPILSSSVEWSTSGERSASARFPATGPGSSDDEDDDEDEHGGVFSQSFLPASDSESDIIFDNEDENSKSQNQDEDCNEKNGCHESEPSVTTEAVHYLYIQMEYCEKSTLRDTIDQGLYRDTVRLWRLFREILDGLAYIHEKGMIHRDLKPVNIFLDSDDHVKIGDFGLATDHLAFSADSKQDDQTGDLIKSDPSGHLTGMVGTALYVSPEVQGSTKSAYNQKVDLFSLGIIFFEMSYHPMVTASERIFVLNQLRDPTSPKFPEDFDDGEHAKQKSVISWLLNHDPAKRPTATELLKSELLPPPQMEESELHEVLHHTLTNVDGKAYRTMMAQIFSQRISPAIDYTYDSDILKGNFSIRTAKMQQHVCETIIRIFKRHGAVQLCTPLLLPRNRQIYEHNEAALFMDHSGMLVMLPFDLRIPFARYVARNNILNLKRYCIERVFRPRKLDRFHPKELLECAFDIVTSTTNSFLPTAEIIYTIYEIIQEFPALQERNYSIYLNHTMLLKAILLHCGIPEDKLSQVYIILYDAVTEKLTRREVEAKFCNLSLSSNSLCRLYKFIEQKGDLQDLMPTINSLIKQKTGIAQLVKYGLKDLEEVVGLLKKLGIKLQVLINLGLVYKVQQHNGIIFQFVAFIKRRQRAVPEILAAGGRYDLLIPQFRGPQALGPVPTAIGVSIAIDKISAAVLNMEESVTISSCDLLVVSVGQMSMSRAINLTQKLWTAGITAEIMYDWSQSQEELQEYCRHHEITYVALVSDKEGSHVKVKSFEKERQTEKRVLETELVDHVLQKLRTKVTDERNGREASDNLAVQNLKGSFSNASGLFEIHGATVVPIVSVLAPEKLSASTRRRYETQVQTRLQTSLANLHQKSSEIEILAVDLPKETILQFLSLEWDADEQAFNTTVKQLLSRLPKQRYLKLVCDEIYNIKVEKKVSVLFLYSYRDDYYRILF", "assay": "TR-FRET biochemical assay for inhibition of GCN2 activity", "conditions": "2 nM GCN2, 100 nM GFP-eIF2α, 150 μM ATP, 1.5 hours at 25° C.", "protocol": "Exemplary compounds from the above Examples were tested for ability to inhibit GCN2 activity using a time resolved fluorescence energy transfer (TR-FRET) assay. Assay procedures and results are described below for Examples 12-105.\nGCN2 protein was obtained from Carma Biosciences (cat #05-153). The protein was diluted in assay buffer (ThermoFisher Scientific, #PV6135), 2 mM dithiothreitol (DTT), to obtain a final concentration of 2 nM and 5 μL was plated in a 384-well white assay plate. Test compounds were serially diluted to 11 concentrations by 3-fold dilution in DMS0 and 10 nL of stock was plated into 384 well white assay plate. DMS0 was used as a vehicle control. GFP-eIF2α protein was obtained from ThermoFisher (cat #PV4809). The protein was diluted in assay buffer to a 2× concentration of 200 nM along with 300 μM ATP (final concentration of 100 nM GFP-eIF2α and 150 μM ATP) in the presence of 2 mM DTT and a […] was added to each well containing the GCN2 protein and test compound. The plate was incubated in the dark at 25° C. for 1.5 hours, shaking at 1250 rpm. Tb-anti P-eIF2α (ThermoFisher cat #PV4815) was diluted to a to a concentration of 1 nM in TR-FRET Dilution Buffer (ThermoFisher cat #PV3574). 10 μL of the Tb-anti P-eIF2a solution was added to the TR-FRET reaction. The plate was incubated in the dark for 2 h at 25° C. shaking at 600 rpm. The FRET signal from the plate was read on a Envision (PerkinElmer) plate reader: • Label 1: Excitation: 340 nm, bandwidth 30 nm; Emission: 495 nm, bandwidth 10 nm. Lag time: 100 μsec. Integration time: 400 μsec. Flashes: 30. • Label 2: Excitation: 340 nm, bandwidth 30 nm; Emission: 520 nm, bandwidth 25 nm. Lag time: 100 μsec. Integration time: 400 μsec. Flashes: 30\nThe data were analyzed using GraphPad Prism employing a 4-parameter sigmoidal curve fit.", "values": [
      {"smiles": "COc1ncc(Cl)cc1S(=O)(=O)Nc1ccc(F)c(COc2cnc3[nH]nc(C(C)C)c3c2)c1F", "note": "[Compound 53, 5-chloro-N-[2,4-difluoro-3-[([3-isopropyl-1H-pyrazolo[3,4-b]pyridin-5-yl]oxy)methyl]phenyl]-2-methoxypyridine-3-sulfonamide]", "pIC50": "> 7.30"},
      {"smiles": "Cc1ncc(F)cc1S(=O)(=O)Nc1ccc(F)c(COc2cnc3[nH]nc(C(C)C)c3c2)c1F", "note": "[Compound 54, N-[2,4-difluoro-3-[([3-isopropyl-1H-pyrazolo[3,4-b]pyridin-5-yl]oxy)methyl]phenyl]-5-fluoro-2-methylpyridine-3-sulfonamide]", "pIC50": "> 7.30"},
      {"smiles": "COc1ncc(C#N)cc1S(=O)(=O)Nc1ccc(F)c(COc2cnc3[nH]nc(C(C)C)c3c2)c1F", "note": "[Compound 55, 5-cyano-N-[2,4-difluoro-3-[([3-isopropyl-1H-pyrazolo[3,4-b]pyridin-5-yl]oxy)methyl]phenyl]-2-methoxypyridine-3-sulfonamide]", "pIC50": "6.30 to 7.30"},
      {"smiles": "COc1ncc(F)cc1S(=O)(=O)Nc1ncc(F)c(COc2cnc3[nH]nc(C)c3c2)c1F", "note": "[Compound 56, N-[3,5-difluoro-4-[([3-methyl-1H-pyrazolo[3,4-b]pyridin-5-yl]oxy)methyl]pyridin-2-yl]-5-fluoro-2-methoxypyridine-3-sulfonamide]", "pIC50": "> 7.30"},
      {"smiles": "COc1ncc(F)cc1S(=O)(=O)Nc1ccc(F)c(NCc2cnc3[nH]nc(C)c3c2)c1F", "note": "[Compound 57, N-[2,4-difluoro-3-[([3-methyl-1H-pyrazolo[3,4-b]pyridin-5-yl]methyl)amino]phenyl]-5-fluoro-2-methoxypyridine-3-sulfonamide]", "pIC50": "6.30 to 7.30"},
      {"smiles": "COc1ncc(Cl)cc1S(=O)(=O)Nc1ccc(F)c(NCc2cnc3[nH]nc(C)c3c2)c1F", "note": "[Compound 58, 5-chloro-N-[2,4-difluoro-3-[([3-methyl-1H-pyrazolo[3,4-b]pyridin-5-yl]methyl)amino]phenyl]-2-methoxypyridine-3-sulfonamide]", "pIC50": "> 7.30"},
      {"smiles": "Cc1ncc(F)cc1S(=O)(=O)Nc1ccc(F)c(NCc2cnc3[nH]nc(C)c3c2)c1F", "note": "[Compound 59, N-[2,4-difluoro-3-[([3-methyl-1H-pyrazolo[3,4-b]pyridin-5-yl]methyl)amino]phenyl]-5-fluoro-2-methylpyridine-3-sulfonamide]", "pIC50": "6.30 to 7.30"},
      {"smiles": "COc1ncc(Cl)cc1S(=O)(=O)Nc1ccc(F)c(COc2cnn3cncc3c2)c1F", "note": "[Compound 60, 5-chloro-N-(2,4-difluoro-3-((imidazo[1,5-b]pyridazin-3-yloxy)methyl)phenyl)-2-methoxypyridine-3-sulfonamide]", "pIC50": "> 7.30"},
      {"smiles": "COc1ncc(F)cc1S(=O)(=O)Nc1ccc(F)c(COc2cnc3[nH]nc(C)c3c2)c1Cl", "note": "[Compound 61, N-[2-chloro-4-fluoro-3-[([3-methyl-1H-pyrazolo[3,4-b]pyridin-5-yl]oxy)methyl]phenyl]-5-fluoro-2-methoxypyridine-3-sulfonamide]", "pIC50": "> 7.30"},
      {"smiles": "COc1ncc(F)cc1S(=O)(=O)Nc1ccc(F)c(COc2cnc3[nH]nc(C)c3c2)c1C#N", "note": "[Compound 62, N-[2-cyano-4-fluoro-3-[([3-methyl-1H-pyrazolo[3,4-b]pyridin-5-yl]oxy)methyl]phenyl]-5-fluoro-2-methoxypyridine-3-sulfonamide]", "pIC50": "6.30 to 7.30"},
      {"smiles": "COc1ncc(F)cc1S(=O)(=O)Nc1ccnc(COc2cnc3[nH]nc(C)c3c2)c1F", "note": "[Compound 63, 5-fluoro-N-[3-fluoro-2-[([3-methyl-1H-pyrazolo[3,4-b]pyridin-5-yl]oxy)methyl]pyridin-4-yl]-2-methoxypyridine-3-sulfonamide]", "pIC50": "6.30 to 7.30"},
      {"smiles": "COc1ncc(Cl)cc1S(=O)(=O)Nc1ccnc(COc2cnc3[nH]nc(C)c3c2)c1F", "note": "[Compound 64, 5-chloro-N-[3-fluoro-2-[([3-methyl-1H-pyrazolo[3,4-b]pyridin-5-yl]oxy)methyl]pyridin-4-yl]-2-methoxypyridine-3-sulfonamide]", "pIC50": "> 7.30"},
      {"smiles": "COc1ncc(Cl)cc1S(=O)(=O)Nc1ncc(F)c(COc2cnc3[nH]nc(C)c3c2)c1F", "note": "[Compound 65, 5-chloro-N-[3,5-difluoro-4-[([3-methyl-1H-pyrazolo[3,4-b]pyridin-5-yl]oxy)methyl]pyridin-2-yl]-2-methoxypyridine-3-sulfonamide]", "pIC50": "> 7.30"},
      {"smiles": "COc1ncc(F)cc1S(=O)(=O)Nc1ncc(F)c(COc2cnc3[nH]nc(C)c3c2)c1Cl", "note": "[Compound 66, N-[3-chloro-5-fluoro-4-[([3-methyl-1H-pyrazolo[3,4-b]pyridin-5-yl]oxy)methyl]pyridin-2-yl]-5-fluoro-2-methoxypyridine-3-sulfonamide]", "pIC50": "> 7.30"},
      {"smiles": "COc1ncc(F)cc1S(=O)(=O)Nc1ccc(F)c(COc2cnc3[nH]nc(C)c3c2)n1", "note": "[Compound 67, 5-fluoro-N-[5-fluoro-6-[([3-methyl-1H-pyrazolo[3,4-b]pyridin-5-yl]oxy)methyl]pyridine-2-yl]-2-methoxypyridine-3-sulfonamide]", "pIC50": "< 6.00"},
      {"smiles": "COc1ncc(Cl)cc1S(=O)(=O)Nc1ccc(F)c(COc2cnc3[nH]nc(C)c3c2)n1", "note": "[Compound 68, 5-chloro-N-[5-fluoro-6-[([3-methyl-1H-pyrazolo[3,4-b]pyridin-5-yl]oxy)methyl]pyridin-2-yl]-2-methoxypyridine-3-sulfonamide]", "pIC50": "6.30 to 7.30"},
      {"smiles": "C#Cc1n[nH]c2ncc(OCc3c(F)ccc(NS(=O)(=O)c4cc(F)cnc4OC)c3F)cc12", "note": "[Compound 69, N-[3-[([3-ethynyl-1H-pyrazolo[3,4-b]pyridin-5-yl]oxy)methyl]-2,4-difluorophenyl]-5-fluoro-2-methoxypyridine-3-sulfonamide]", "pIC50": "> 7.30"},
      {"smiles": "COc1ncc(F)cc1S(=O)(=O)Nc1ccc(F)c(COc2cnc3[nH]nc(C4CC4)c3c2)c1F", "note": "[Compound 70, N-(3-(((3-cyclopropyl-1H-pyrazolo[3,4-b]pyridin-5-yl)oxy)methyl)-2,4-difluorophenyl)-5-fluoro-2-methoxypyridine-3-sulfonamide]", "pIC50": "> 7.30"},
      {"smiles": "COc1ncc(F)cc1S(=O)(=O)Nc1ccc(F)c(COc2cnc3[nH]c(=O)n(C)c3c2)c1F", "note": "[Compound 71, N-[2,4-difluoro-3-[([1-methyl-2-oxo-3H-imidazo[4,5-b]pyridin-6-yl]oxy)methyl]phenyl]-5-fluoro-2-methoxypyridine-3-sulfonamide]", "pIC50": "> 7.30"},
      {"smiles": "COc1ncc(F)cc1S(=O)(=O)Nc1ccc(F)c(COc2cnc3c(c2)C2(CC2)C(=O)N3)c1F", "note": "[Compound 72, N-[2,4-difluoro-3-([2-oxo-1H-spiro[cyclopropane-1,3-pyrrolo[2,3-b]pyridin]-5-yloxy]methyl)phenyl]-5-fluoro-2-methoxypyridine-3-sulfonamide]", "pIC50": "> 7.30"},
      {"smiles": "COc1ncc(F)cc1S(=O)(=O)Nc1ccc(F)c(COc2cnc3[nH]nc(C#N)c3c2)c1F", "note": "[Compound 73, N-(3-(((3-cyano-1H-pyrazolo[3,4-b]pyridin-5-yl)oxy)methyl)-2,4-difluorophenyl)-5-fluoro-2-methoxypyridine-3-sulfonamide]", "pIC50": "> 7.30"},
      {"smiles": "Cc1ncc(F)cc1S(=O)(=O)Nc1ccc(F)c(COc2cnc3[nH]nc(C)c3c2)c1Cl", "note": "[Compound 74, N-[2-chloro-4-fluoro-3-[([3-methyl-1H-pyrazolo[3,4-b]pyridin-5-yl]oxy)methyl]phenyl]-5-fluoro-2-methylpyridine-3-sulfonamide]", "pIC50": "> 7.30"},
      {"smiles": "COc1ncc(F)cc1S(=O)(=O)Nc1ccc(F)c(COc2cnc3[nH]nc(CC(F)F)c3c2)c1F", "note": "[Compound 75, N-[3-([[3-(2,2-difluoroethyl)-1H-pyrazolo[3,4-b]pyridin-5-yl]oxy]methyl)-2,4-difluorophenyl]-5-fluoro-2-methoxypyridine-3-sulfonamide]", "pIC50": "> 7.30"},
      {"smiles": "COc1ncc(F)cc1S(=O)(=O)Nc1ccc(F)c(COc2cnc3[nH]nc(CCF)c3c2)c1F", "note": "[Compound 76, N-[2,4-difluoro-3-([[3-(2-fluoroethyl)-1H-pyrazolo[3,4-b]pyridin-5-yl]oxy]methyl)phenyl]-5-fluoro-2-methoxypyridine-3-sulfonamide]", "pIC50": "> 7.30"},
      {"smiles": "Cc1ncc(F)cc1S(=O)(=O)Nc1ccc(Cl)c(COc2cnc3[nH]nc(C)c3c2)c1F", "note": "[Compound 77, N-(4-chloro-2-fluoro-3-(((3-methyl-1H-pyrazolo[3,4-b]pyridin-5-yl)oxy)methyl)phenyl)-5-fluoro-2-methylpyridine-3-sulfonamide]", "pIC50": "> 7.30"},
      {"smiles": "COc1ncc(F)cc1S(=O)(=O)Nc1ccc(Cl)c(COc2cnc3[nH]nc(C)c3c2)c1F", "note": "[Compound 78, N-(4-chloro-2-fluoro-3-(((3-methyl-1H-pyrazolo[3,4-b]pyridin-5-yl)oxy)methyl)phenyl)-5-fluoro-2-methoxypyridine-3-sulfonamide]", "pIC50": "> 7.30"},
      {"smiles": "COc1ncc(Cl)cc1S(=O)(=O)Nc1ncc(F)c(COc2cnc3[nH]nc(C)c3c2)c1Cl", "note": "[Compound 79, 5-chloro-N-[3-chloro-5-fluoro-4-[([3-methyl-1H-pyrazolo[3,4-b]pyridin-5-yl]oxy)methyl]pyridin-2-yl]-2-methoxypyridine-3-sulfonamide]", "pIC50": "> 7.30"}
    ]}
  ]
}
